Consider 6 molecules from patent US12528777B2, “Quinazolinones derivatives for treatment of non-alcoholic fatty liver disease, preparation and use thereof” (Council of Scientific and Industrial Research, priority 2020, dated 2026).

One may read the logD as lipophilicity at a set pH, counting ionised and neutral species. A word on the EC50: it is the midpoint of the concentration-response curve.

One data set is described as follows: Plasma stability assay. It is filed as in vitro ADME, human. To be noted: for Mean % remaining at 2 hrs in human Plasma: 1 μM, 37° C., 120 min, LC-MS/MS; for Plasma stability: human plasma, after 2 hours, with respect to Propantheline. Here is the method: 1 mM Stock of test compound was prepared from 10 mM initial stock solution of compounds by diluting 10 μL of 10 mM stock with 90 μL of DMSO. Then 10 μL of 1 mM stock was diluted with 90 µL of DMSO to give 100 μM concentration. The frozen plasma was thawed at room temperature and centrifuged at 1400 rpm at 4° C., for 15 minutes. Approximately […] of the clear supernatant fraction was transferred to a separate tube and was used for the assay. Final working stock of 1 μM was prepared by diluting 3 μL of 100 μM with 297 μL of plasma. Plasma containing the test compound was incubated for 120 min at 37° C. in shaker with 500 rpm. 50 μL of aliquot of sample at 0, 15, 30, 60 and 120 minutes were precipitated with 150 μL of acetonitrile containing internal standard and centrifuged at 4000 rpm at 4° C. for 20 minutes. 120 μL of supernatant was diluted with 120 μL of water and analyzed by LC-MS/MS.

Data set [1] addresses COP1 (Homo sapiens, UniProt Q8NHY2). Briefly: In vitro ubiquitination of purified ATGL by COP1 with UbcH6. Further details: host or cells: HEK293A. The note with it: 5 μM compound, COP1 overexpressing HEK293A lysate. Format: biochemical. From the text:
Purification of ATGL protein and obtaining COP1 overexpressing cell lysate: Myc-ATGL plasmid and Myc-DDK-COP1 plasmid ([…] each) were transfected separately in cultured HEK293A cells with the help of Lipofectamine2000 (Invitrogen). Cells were harvested in Lysis Buffer and protein solution was extracted as described previously. The Lysis Buffer used to harvest COP1 overexpressing cells had 0.1% SDS supplemented in it. The concentration of protein was estimated using Bradford assay. For source of E3 ligase, the total cell lysate from COP1 overexpressing HEK293A cells were used.
For purification of Myc-ATGL: 1 ml of Ni^2+-NTA resin (Roche) was taken in a 15 ml centrifuge tube and centrifuged at 2000 RPM for 5 minutes. The upper ethanol layer was discarded and the pellet was washed in 1×PBS twice to remove any remaining traces of ethanol. The pellet was finally washed once with Lysis Buffer for equilibration. […] The tube was incubated overnight at 4° C. in a rotary shaker.
The next day, the solution was centrifuged at 2000 RPM for 10 minutes and the supernatant collected. Lysis Buffer (containing protease inhibitor cocktail twice the previous concentration) was used for washing the beads twice to remove non-specific and unattached reactants in a stringent condition. The beads were finally washed once with 1×PBS containing the same amount of protease inhibitor for equilibration. 300 μl of 500 mM Imidazole (Sigma Aldrich) solution in 1×PBS was added to the resin for elution of ATGL and centrifuged at 2000 RPM for 30 minutes and the eluted protein was collected. To the separated resin, 300 μl of 1M Imidazole solution was added and centrifuged at 2000 RPM for 30 minutes and the second elute was collected. […] of eluted protein from each elution was boiled with 5 μl of Laemmli's buffer at 95° C. for 10 minutes and run in 10% SDS-PAGE gel. The supernatant collected before elution of ATGL and the proteins still attached to the Ni^2+-NTA resin were also run in the SDS-PAGE. The resolved proteins were subsequently transferred on PVDF membranes and probed with anti-myc primary antibody to check the presence of purified ATGL in the elute. Also to check the yield of the purified protein, 40 μl of the elute was run in 10% SDS page and stained with Coomassie Brilliant Blue solution followed by destaining with methanol, glacial acetic acid and water in a 50:40:10 ratio.
For identifying the E2 ubiquitin-conjugating enzyme responsible for ATGL ubiquitination by COP1, an in vitro ubiquitinylation kit (Enzo Life Sciences) was used. The assay was reconstituted as per manufacturer's protocol with the panel of E2 conjugating enzymes provided and other required components at the mentioned concentrations. The reaction was carried out for 6 hours following which it was quenched as per directions with the provided 2× non-reducing gel buffer and then analysed by western blotting.
Having identified the E2 ubiquitin conjugating enzyme as UbcH6, ubiquitination assay was set up in vitro as described previously with 5 μM of the compound 9, 107, 171, 179 and 73 followed by quenching and analysis by western blotting.
Ubiquitination of a target protein is carried out in a three step process involving three different enzymes: E1 ubiquitin activating enzyme, E2 ubiquitin conjugating enzyme and E3 ubiquitin ligase. In humans, there is only one E1 ubiquitin activating enzyme and multiple E2 and E3 enzymes. […]

In data set [2] the test system is ATGL. The data set can be described thus: qPCR of ATGL mRNA in HepG2 cells. It is filed as cell-based. The note with it: 5 μM and 10 μM, 24 hours. Here is the method: (§1) Ubiquitination of ATGL by COP1 is a post translational event, therefore, it is expected that the mRNA level of ATGL will not change compared to control upon treatment with the compound of the present disclosure which inhibit COP1. To establish this, HepG2 cells were treated with 5 μM and 10 μM of the compounds 9, 107, 171, 179 and 73 for 24 hours. RNA was isolated using TRIzol reagent followed by chloroform treatment and precipitation with isopropanol. cDNA was obtained from the isolated RNA and qPCR was carried out using SyBr green reagent. COP1 and ATGL gene expression levels were checked. 18s was used as control. FIG. 8 illustrates that compounds exert no effect on the mRNA levels of ATGL.
(In general: In qPCR the cycle at which signal appears reflects the starting amount.)

A short description of data set [3]: Lipophilicity assay (octanol/buffer). It is filed as physicochemical. To be noted: for logD: n-octanol / 10 mM sodium phosphate buffer pH 7.4, LC-UV; for Lipophilicity class from Log D: pH 7.4. The method, then:
1.56 g NaH2PO4·2H2O was dissolved in 0.5 L water in a 1 L beaker. After adjusting pH to 7.4 using NaOH solution, the volume was made up to 1 L. Equal volumes of sodium phosphate buffer (10 mM, pH 7.4) and n-octanol were added to a separation funnel and mixed thoroughly by shaking and inverting the funnel several times. The two layers were allowed to separate for overnight and then dispensed in two separate glass bottles. 10 mM stock solution was prepared in 100% DMSO and stored at 4° C. 495 μL of organic phase (1-octanol) was added to each well of a 2 mL deep well plate, followed by 495 μL of buffer and 10 μL of test compound was added. The plate was incubated for 3 hr at room temperature on a plate shaker at 500 rpm. After incubation, the samples were allowed to equilibrate for 20 min and then centrifuged at 4000 rpm for 30 min for complete phase separation and analysed by LC-UV.
Log D=Log (area of octanol/area of buffer)

Data set [4] has as its system COP1. Briefly: qPCR of COP1 mRNA in HepG2 cells. To be noted: 5 μM and 10 μM, 24 hours. It is filed as cell-based. Here is the method:
as §1

Data set [5] concerns ATGL. The data set can be described thus: Western blot of ATGL level in HepG2 cells. It is filed as cell-based. Further details: key to Increase in ATGL level: + = slight or in insignificant; ++ = Moderate; +++ and ++++ = active; +++ and ++++ = active; +++++ = very active. To be noted: for Increase in ATGL level: HepG2 cells, score. The gist of the method:
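HepG2 cells were treated with compound 24 h (10 μM screen; 50 nM–5 μM dose series) and lysed. 30 μg protein was western blotted for ATGL, with actin as loading reference. ATGL increase was expressed as percent of the 1.6-fold siCOP1 maximum and plotted against log concentration for EC50.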

Data set [6] is described as follows: Metabolic stability using Human Liver Microsomes. It is filed as in vitro ADME. To be noted: for % QH (Well stirred model): NADPH, 0-60 min. Here is the method: 1 mM stock solution of test compound was prepared in DMSO and diluted with Acetonitrile:Water (1:1) to get a 100 μM working concentration. 100 mL of Milli Q water was added to K2HPO4 (1.398 g) and KH2PO4 (0.27 g) to get final pH 7.4 solution of potassium phosphate buffer. […] The above mixture was pre incubated for 15 minutes at 37° C. After pre incubation, 32.5 μL of the mixture was added to 17.5 μL of buffer, this was incubated for 60 minutes at 37° C. [60 min Without Cofactor (NADPH)]. 16.25 μL of the pre incubated mixture and 8.75 μL of cofactor was added to 150 μL of acetonitrile containing internal standard [0 min Sample]. 62 μL of cofactor was added to remaining pre incubation mixture [Incubation mixture]. 25 μL of incubation mixture at 0, 5, 15, 30, 60 min and 60 min without cofactor were precipitated with 150 μL of acetonitrile containing internal standard, vortexed and centrifuged at 4000 rpm at 4° C. for 20 minutes. 120 μL of supernatant was diluted with 120 μL of water and analyzed by LC-MS/MS [sample preparation].
On the technique in general: Liver microsomes are a subcellular fraction often used to study metabolism.

The subject of data set [7] is HepG2 cells. The data set can be described thus: Basal oxygen consumption rate (OCR) by Seahorse. It is filed as cell-based. The note with it: 5 μM, 24 hours, hydrochloride. The method, then: HepG2 cells were plated in Seahorse cell culture microplates (24 well). Cells were treated with 5 μM of compounds 9, 107, 238 and 238a for 24 hours. The calibrator plate was dipped in the calibrator solution and incubated overnight at 37° C. in a non-CO2 incubator. The next day, cells were washed with Agilent Seahorse XF Base Medium, Minimal DMEM twice, making sure to leave at least 50 μl of media in the wells and incubated for 1 hour at 37° C. in a non-CO2 incubator. Following this, oxygen consumption rate was measured in the Seahorse instrument. FIG. 12 illustrates basal oxygen consumption rate of compounds 9, 107, 238a, and 238.

In data set [8] the test system is HepG2 cells. The data set can be described thus: Confocal microscopy: lipid droplets in oleate induced HepG2 cells. It is filed as cell-based. Further details: key to Reduction in Lipid Droplets: + = slight or in insignificant; ++ = Moderate; +++ and ++++ = active; +++ and ++++ = active; +++++ = very active. The note with it: oleate induced HepG2 cells, score. The gist of the method:
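HepG2 cells were loaded with 250 μM oleate and given compound in DMSO (10 μM screen; 10 nM–5 μM dose series) for 24 h; BSA as negative control. Lipid droplets stained with BODIPY/Hoechst, imaged confocally; mean droplets per cell counted over ~20 cells versus oleate-only cells.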

“Also recorded” adds a separate entry of the source.

Chain of COP1 (Homo sapiens, UniProt Q8NHY2) (Q8NHY2 whole entry): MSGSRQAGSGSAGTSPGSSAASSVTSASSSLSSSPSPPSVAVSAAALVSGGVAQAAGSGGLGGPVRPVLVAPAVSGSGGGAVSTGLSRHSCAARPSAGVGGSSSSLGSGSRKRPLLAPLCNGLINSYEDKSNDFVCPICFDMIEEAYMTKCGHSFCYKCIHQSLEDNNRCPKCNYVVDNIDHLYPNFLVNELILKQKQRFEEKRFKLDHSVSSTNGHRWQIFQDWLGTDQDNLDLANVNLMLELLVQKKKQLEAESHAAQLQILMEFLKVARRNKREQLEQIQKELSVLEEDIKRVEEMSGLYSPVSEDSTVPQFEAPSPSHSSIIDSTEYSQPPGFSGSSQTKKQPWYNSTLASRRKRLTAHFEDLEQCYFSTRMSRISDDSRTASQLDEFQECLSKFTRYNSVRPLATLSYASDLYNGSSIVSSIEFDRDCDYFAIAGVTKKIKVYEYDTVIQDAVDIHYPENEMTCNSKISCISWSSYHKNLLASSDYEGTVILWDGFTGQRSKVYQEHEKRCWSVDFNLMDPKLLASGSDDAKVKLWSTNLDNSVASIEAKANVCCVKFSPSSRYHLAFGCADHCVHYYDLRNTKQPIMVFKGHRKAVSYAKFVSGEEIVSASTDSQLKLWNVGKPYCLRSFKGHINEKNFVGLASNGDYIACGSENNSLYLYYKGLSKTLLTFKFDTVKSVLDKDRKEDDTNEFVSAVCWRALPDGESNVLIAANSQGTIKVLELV

In the case of `COCCn1cnc2ccc(NC(=O)Nc3cccc(C(C)=O)c3)c(Br)c2c1=O` [Compound 73, 1-(3-acetylphenyl)-3-(5-bromo-3-(2-methoxyethyl)-4-oxo-3,4-dihydroquinazolin-6-yl)urea], in the data set “Plasma stability assay”, the “Mean % remaining at 2 hrs in human Plasma” value (“Mean % remaining at 2 hrs” below) turned out to be 10.3% and the “Plasma stability” value is “lower plasma stability”. Also, at COP1 [1], the “ATGL ubiquitination by COP1 in vitro” value is “effective in reducing the ubiquitination of ATGL by COP1”. The “ATGL mRNA level” value in the data set on ATGL [2] is “no significant changes”. In data set [3], the logD is 1.95 and the “Lipophilicity class from Log D” value is reported as “ideal lipophilicity”. Moreover, the “COP1 mRNA level” value in the data set with COP1 [4] is “no significant changes”.
In the case of `CCC(COC)n1cnc2ccc(NC(=O)Nc3cccc(C(C)=O)c3)cc2c1=O` (stereo not shown) [Compound 171, 1-(3-acetylphenyl)-3-(3-(1-methoxybutan-2-yl)-4-oxo-3,4-dihydroquinazolin-6-yl)urea], the “ATGL ubiquitination by COP1 in vitro” value on COP1 [1] is “effective in reducing the ubiquitination of ATGL by COP1”. The “ATGL mRNA level” value in the data set with ATGL [2] is on record as “no significant changes”. In the data set with ATGL [5] (western blot), the “Increase in ATGL level” value was “+++”. Besides, the “COP1 mRNA level” value with COP1 [4] is “no significant changes”.
Turning to `COCCn1c(-c2ccccn2)nc2ccc(NC(=O)Nc3cccc(C(C)=O)c3)cc2c1=O` [Compound 211, 1-(3-acetylphenyl)-3-(3-(2-methoxyethyl)-4-oxo-2-(pyridin-2-yl)-3,4-dihydroquinazolin-6-yl)urea], in the data set “Plasma stability assay”, the “Mean % remaining at 2 hrs” value was 110.3% and the “Plasma stability” value is “good plasma stability”. In [3], the logD turned out to be 2.48 and the “Lipophilicity class from Log D” value is listed as “ideal lipophilicity”. In addition, the EC50 in the data set with ATGL [5] (fold increase of ATGL by densitometry, as % of 1.6 fold maximum with siCOP1, doses 10-5000 nM, read-out: EC50 (in-vitro)) is 199 nM. Besides, in the data set with ATGL [5] (western blot, 24 hours, 10 μM screening or 50 nM-5 μM dose dependent), the “ATGL level in HepG2 cells” value is “increased ATGL level”. In data set [6], the “Clearance class from % QH” value is “medium clearance” and the “% QH (Well stirred model)” value came to 38.8%.
Regarding `COCCn1c(CN2CCCCC2)nc2ccc(NC(=O)Nc3cccc(C(C)=O)c3)cc2c1=O.Cl` [Compound 238a, 1-(3-acetylphenyl)-3-(3-(2-methoxyethyl)-4-oxo-2-(piperidin-1-ylmethyl)-3,4-dihydroquinazolin-6-yl)urea hydrochloride], in the data set on HepG2 cells [7], the “Basal oxygen consumption rate” value is listed as “higher oxygen consumption rate compared to control; also recorded: increase in the basal OCR values”.
With `CC(=O)c1cccc(NC(=O)Nc2ccc3ncn(CC(=O)Nc4ccccc4F)c(=O)c3c2)c1` [Compound 253, 2-(6-(3-(3-acetylphenyl)ureido)-4-oxoquinazolin-3 (4H)-yl)-N-(2-fluorophenyl)acetamide], in “Plasma stability assay”, the “Mean % remaining at 2 hrs” value came to 67.2% and the “Plasma stability” value was “good plasma stability”. Besides, in [3], the logD is 3.01 and the “Lipophilicity class from Log D” value is “ideal lipophilicity”. In the data set on ATGL [5] (western blot), the “Increase in ATGL level” value is recorded as “+”. Besides, in the data set with HepG2 cells [8], the “Reduction in Lipid Droplets” value is “++”. Further, in [6], the “Clearance class from % QH” value is “lower clearance” and the “% QH (Well stirred model)” value is on record as 29.8%.
For `COCCn1c(C(=O)N2CCCCC2)nc2ccc(NC(=O)Nc3cccc(C(C)=O)c3)cc2c1=O` [Compound 330a, 1-(3-acetylphenyl)-3-(3-(2-methoxyethyl)-4-oxo-2-(piperidine-1-carbonyl)-3,4-dihydroquinazolin-6-yl)urea], in “Plasma stability assay”, the “Mean % remaining at 2 hrs” value is given as 45.8% and the “Plasma stability” value is given as “good plasma stability”. In addition, in data set [3], the log distribution coefficient (logD) worked out at 1.79 and the “Lipophilicity class from Log D” value is reported as “ideal lipophilicity”. Moreover, in data set [6], the “Clearance class from % QH” value is “lower clearance” and the “% QH (Well stirred model)” value turned out to be 26.0%.
